Source: PubChem BioAssay (NCI)
Values joined by “and” are separate entries in the source; they are usually repeats but may differ in a detail not shown here. Identical values can stand only once.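 Cultured in 96-well plates, cells were exposed to test compound for 48 hours across five concentrations. GI50 = concentration required for 50% inhibition of growth. TGI denotes the concentration required for complete inhibition of growth.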

Tests used:
Test in all cases: inhibition of tumour cell growth, NCI panel, 48 h
OVCAR-3 ovarian = system: OVCAR-3 ovarian
OVCAR-8 ovarian = system: OVCAR-8 ovarian
M14 melanoma = system: M14 melanoma
UACC-62 melanoma = system: UACC-62 melanoma
NCI-H226 lung = system: NCI-H226 lung
U251 CNS = system: U251 CNS
HOP-62 NSCLC = system: HOP-62 NSCLC
NCI-H460 lung = system: NCI-H460 lung
NCI-H522 lung = system: NCI-H522 lung
SK-OV-3 ovarian = system: SK-OV-3 ovarian

Compound | GI50 (OVCAR-3 ovarian) | TGI (OVCAR-3 ovarian) | GI50 (OVCAR-8 ovarian) | TGI (OVCAR-8 ovarian) | GI50 (M14 melanoma) [µM] | TGI (M14 melanoma) [µM] | GI50 (UACC-62 melanoma) [µM] | TGI (UACC-62 melanoma) [µM] | GI50 (NCI-H226 lung) [µM] | TGI (NCI-H226 lung) | GI50 (U251 CNS) [µM] | TGI (U251 CNS) [µM] | GI50 (HOP-62 NSCLC) [µM] | TGI (HOP-62 NSCLC) [µM] | GI50 (NCI-H460 lung) [µM] | TGI (NCI-H460 lung) | GI50 (NCI-H522 lung) [µM] | TGI (NCI-H522 lung) | GI50 (SK-OV-3 ovarian) [µM] | TGI (SK-OV-3 ovarian) [µM]
C=C(CN1CCN(c2cccc(C(F)(F)F)c2)CC1)c1ccc(C(=O)Nc2ccccc2N)cc1 | 0.545 µM | 6.2 µM | 1.4 µM | 17.2 µM | 1.05 | 9.89 | 0.409 | 4.89 | 1.89 | 20.1 µM | 1.18 | 5.84 | 0.696 | 6.27 | 1.56 | > 24.8 µM | 6.14 | > 16.1 µM |  | 
Cc1ccc(N=C2CSc3nnc(-c4csc5c4CCCC5)n3N2)cc1 | 0.162 µM | 7.75 µM | 0.223 µM | > 50 µM |  |  | 0.277 | > 50 | > 50 | > 50 µM | 0.2 | > 50 | 0.24 | > 50 | 0.181 | > 50 µM | 0.114 | 0.432 µM | 0.271 | > 50
CN(C)C(=O)CC(C(=O)O)c1c[nH]c2ccccc12 (centres undefined) |  | > 100 µM |  | > 100 µM |  | > 100 |  | > 100 |  |  |  | > 100 |  | > 100 |  | > 100 µM |  | > 100 µM |  | 
COc1cc2c3c(n(CCCN4CCN(C)CC4)c(=O)c2cc1OC)-c1cc2c(cc1C3=O)OCO2 | 15.3 µM | 30.1 µM | 18.1 µM | 46.5 µM |  |  | 15.1 | 34.2 | 13.9 | 31 µM | 11.4 | 27.5 | 18 | 95.8 | 5.8 | 28.2 µM | 15.4 | 45.4 µM | 12.3 | 34
O=C(CC/C(C/C(=N/O)c1ccc(F)cc1)=N/O)N(Cc1ccccc1)Cc1ccccc1 |  | > 100 µM |  | > 100 µM |  | > 100 |  | > 100 |  | > 100 µM |  | > 100 |  | > 100 |  | > 100 µM |  | > 100 µM |  | 
Cc1ccc(-c2ccc(Nc3c4ccccc4nc4ccccc34)cc2)cn1 |  | 6.41 µM |  | > 100 µM |  | 11.2 |  | 11.5 |  |  |  |  |  | 3.77 |  | 5.3 µM |  |  |  | 
O=C(O)c1cc2ccccc2c(N=Nc2c([N+](=O)[O-])cc([N+](=O)[O-])cc2S(=O)(=O)O)c1O |  | > 100 µM |  | > 100 µM |  | > 100 |  | > 100 |  | > 100 µM |  | > 100 |  | > 100 |  |  |  | > 100 µM |  | > 100
COc1cc(/C=C/C(=O)c2cc(F)c(Cl)cc2Cl)cc(OC)c1OC | 14.5 µM | 40 µM | 15.8 µM | 33.6 µM | 43.9 | > 100 | 24.8 | > 100 | 79.9 | > 100 µM | 29.3 | > 100 | 82.2 | > 100 | 48.3 | > 100 µM |  |  | > 100 | > 100
COC(=O)C1=C(C(=O)OC)C23C=CC=CC24C(C(=O)OC)=C(C(=O)OC)C4C1C3 (centres undefined) |  | > 100 µM |  | > 100 µM |  | > 100 |  | > 100 |  |  |  | > 100 |  | > 100 |  | > 100 µM |  | > 100 µM |  | 
CC1C=C(OC(=O)c2ccccc2)C(=O)C(n2cc(F)c(=O)n(C(=O)c3ccccc3)c2=O)O1 (centres undefined) |  | 56.4 µM |  | > 100 µM |  | > 100 |  | 98.6 |  |  |  | > 100 |  | > 100 |  | > 100 µM |  |  |  | > 100
CN(C)c1ccc(/C=C2\CNC/C(=C\c3ccc(N(C)C)cc3)C2=O)cc1 |  | > 100 µM |  | 43.7 µM |  | > 100 |  | > 100 |  | > 100 µM |  | 28.7 |  | > 100 |  | 29.4 µM |  |  |  | > 100
Cc1ccc(NC(=O)CC(=O)n2nc(-c3ccccc3)c(N=Nc3ccc(Cl)cc3)c2-c2ccccc2)cc1 |  | > 100 µM |  | 60.6 µM |  | > 100 |  | > 100 |  | > 100 µM |  |  |  | > 100 |  | > 100 µM |  |  |  | > 100
COc1ccc(C2NCCc3c2[nH]c2ccccc32)cc1CN1CCN(c2ccc(F)cc2)CC1 (centres undefined) | 2.1 µM | 4.52 µM | 1.89 µM | 3.95 µM |  |  | 1.8 | 3.32 | 13 | 35.1 µM | 1.56 | 2.93 | 1.81 | 3.82 | 1.85 | 3.49 µM | 1.93 | 3.73 µM | 2.53 | 6.01
COc1ccc2cc(C(=O)/C=C/c3cccc(Cl)c3Cl)ccc2c1 | 7.87 µM | 30.1 µM | 14.9 µM | > 100 µM | 6.51 | > 100 | 4.08 | 28.4 |  |  | 6.19 | 65.3 | 15.4 | 38.9 | 10.1 | > 100 µM | 0.614 | > 24.6 µM | 24.7 | > 62.4
NC1=NC(c2ccccc2)N=C(Nc2ccccc2)N1 (centres undefined) | 32 µM | > 100 µM | > 100 µM | > 100 µM | > 100 | > 100 | > 100 | > 100 | > 100 | > 100 µM | 42.1 | > 100 | > 100 | > 100 | > 100 | > 100 µM |  |  | > 100 | > 100
COc1ccc(/C=C(/C(=O)N2CCCC2)c2cc(OC)c(OC)c(OC)c2)cc1N | 0.992 µM | 6.34 µM | 8.92 µM | > 100 µM |  |  | 1.03 | > 100 | 4.44 | > 100 µM | 4.18 | > 100 | 4.07 | > 100 | 2.96 | > 100 µM | 2.34 | > 100 µM | 2.78 | > 100
N/N=C1\c2ccccc2C2/C(=N\N)c3ccccc3C12 (centres undefined) |  | > 100 µM |  | > 100 µM |  | > 100 |  | > 100 |  |  |  | > 100 |  |  |  | > 100 µM |  | > 100 µM |  | > 100
Cc1cc(S(=O)(=O)Nc2nc3ccsc3c(=O)n2Cc2ccco2)c(S)cc1Cl | > 100 µM | > 100 µM | > 100 µM | > 100 µM | > 100 | > 100 | 53.1 | > 100 | > 100 | > 100 µM | 96.3 | > 100 | > 100 | > 100 | 60.6 | > 100 µM | > 100 | > 100 µM |  | 
O=C1CC2CCCCC2=C1O (centres undefined) |  | > 100 µM |  | > 100 µM |  |  |  | > 100 |  |  |  | > 100 |  | > 100 |  | > 100 µM |  | > 100 µM |  | > 100
Cc1ccc(S(=O)(=O)Oc2ccc3c4c(c(=O)oc3c2)CCCCC4)cc1 |  |  | > 100 µM | > 100 µM | > 100 | > 100 | 5.72 | > 100 | 7.5 | > 100 µM | > 100 | > 100 | > 100 | > 100 |  |  | > 100 | > 100 µM | > 100 | > 100
Cn1cc2c(n1)c(N/N=C/c1ccccc1)nn1nnnc21 |  | > 100 µM |  | > 100 µM |  | > 100 |  | > 100 |  | > 100 µM |  | > 100 |  | > 100 |  | > 100 µM |  |  |  | > 100
COc1ccc2nc(NCCCNCCO)c3sc4ccc(F)cc4c(=O)c3c2c1 | 1.8 µM | 3.38 µM |  |  | 1.85 | 3.48 | 1.76 | 3.29 | 1.74 | 3.49 µM | 1.62 | 3.38 | 1.62 | 3.26 | 1.53 | 3.02 µM | 1.77 | 3.55 µM |  | 
Cc1cc(N(CCC#N)CCC#N)ccc1/C=C(\NC(=O)/C=C/c1ccccc1)NC(=O)Nc1ccc(Cl)cc1 |  | > 100 µM |  | > 100 µM |  | > 100 |  | > 100 |  | > 100 µM |  | 39.4 |  |  |  | > 100 µM |  |  |  | 
CC[C@@]1(O)C(=O)OCc2c1cc1n(c2=O)Cc2cc3cc(OC)ccc3nc2-1 | 0.367 µM and 0.747 µM | 5.73 µM and 4.54 µM | 0.0153 µM and 0.0239 µM | 0.297 µM and 0.35 µM | 0.127 |  |  |  |  | 0.063 µM and 0.0968 µM and 0.0206 µM |  | 0.0541 |  | 0.948 | 0.00433 | 0.152 µM and 0.211 µM and 0.188 µM |  | 0.437 µM and 1.99 µM |  | 
N#C/C(=C\c1ccc(Br)cc1)n1nnc2cccc(F)c21 | 0.861 µM | 2.15 µM | 2.59 µM | 13.6 µM |  |  | 1.35 | 3.46 | 1.57 | 3.45 µM | 1.55 | 3.06 | 2.38 | 8.49 | 1.97 | 4.21 µM |  |  |  | 
O=C1C(Cl)=C(Nc2ccc3cn[nH]c3c2)C(=O)c2ccccc21 | 1.08 µM | 2.27 µM | 1.52 µM | 3.01 µM | 1.59 | 3.01 | 1.5 | 2.93 |  |  | 1.31 | 2.58 | 2.15 | 5.29 | 1.7 | 4.14 µM | 1.55 | 2.94 µM | 12 | 24.3
